Measured values taken from US12173018B2, “Penicillin-binding protein inhibitors” (priority 2018, dated 2024).
Converted amounts (≈) assume the structure as drawn. Read-outs that look alike come from different tables or passages of the source.

How the values were obtained:
Type in all cases: cell-based
K. pneumoniae SI-117 = assay: microbe, parasite or virus in culture; conditions: Klebsiella pneumoniae, SI117, read-out: MIC K. pneumoniae SI-117
Method in brief: (§1)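 Colonies from Mueller Hinton II agar were grown 3-5 hours at 37° C in cation-supplemented broth, adjusted by OD600, then added to 2-fold compound dilutions at 5×10^5 CFU/mL. After 16-20 hours at 37° C, MICs were scored visually.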

E. coli 901C = assay: microbe, parasite or virus in culture; conditions: Escherichia coli; hyper-permeable E. coli 901C, broth microdilution; read-out: MIC E. coli 901C
Method in brief: as §1

E. coli D22 = assay: microbe, parasite or virus in culture; conditions: Escherichia coli; hyper-permeable E. coli D22, broth microdilution; read-out: MIC E. coli D22
Method in brief: as §1

K. pneumoniae UMM = assay: microbe, parasite or virus in culture; conditions: Klebsiella pneumoniae; K. pneumoniae UMM producing SHV-5 and KPC-2; read-out: MIC K. pneumoniae UMM
Method in brief: as §1

E. coli AG100A = assay: microbe, parasite or virus in culture; conditions: Escherichia coli, read-out: MIC E. coli AG100A
Method in brief: as §1

E. coli ATCC 25922 = assay: Broth microdilution MIC, E. coli ATCC 25922; conditions: Escherichia coli
Method in brief: as §1

[1] = system: N. gonorrhoeae ATCC 49226; assay: Liquid broth MIC, N. gonorrhoeae ATCC 49226; conditions: Neisseria gonorrhoeae, ATCC49226; N. gonorrhoeae ATCC 49226, liquid broth; read-out: Minimum Inhibitory Concentration, N. gonorrhoeae ATCC 49226
Method in brief: (§2)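 Broth microdilution, 2-fold compound series; start inoculum 5×10^5 CFU/mL (OD600-adjusted, GC broth pH 7.2, Kellogg's suppl.). 40-42 h, 36° C, 5% CO2. MIC = lowest conc., no visible growth.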

N. gonorrhoeae WHO F = assay: Liquid broth MIC, N. gonorrhoeae WHO F; conditions: Neisseria gonorrhoeae; N. gonorrhoeae WHO F, liquid broth; read-out: Minimum Inhibitory Concentration, N. gonorrhoeae WHO F
Method in brief: as §2

[2] = ATCC25922, E. coli ATCC 25922, broth microdilution, read-out: MIC E. coli 25922

Structure (SMILES) | MIC (K. pneumoniae SI-117) [µg/mL] | MIC (E. coli 901C) [µg/mL] | MIC (E. coli D22) [µg/mL] | MIC (K. pneumoniae UMM) [µg/mL] | MIC (E. coli AG100A) [µg/mL] | MIC (E. coli ATCC 25922; [2]) [µg/mL] | MIC (E. coli ATCC 25922; ATCC25922, read-out: MIC E. coli 25922) [µg/mL] | MIC [1] [µg/mL] | MIC (N. gonorrhoeae WHO F) [µg/mL]
CCN1CCN(C(=O)NC(C(=O)N[C@H]2Cc3cc(F)cc(C(=O)O)c3OB2O)c2csc(N)n2)C(=O)C1=O (stereo partly drawn) [Example 16, (3R)-3-(2-(2-aminothiazol-4-yl)-2-(4-ethyl-2,3-dioxopiperazine-1-carboxamido)acetamido)-6-fluoro-2-hydroxy-3,4-dihydro-2H-benzo[e][1,2]oxaborinine-8-carboxylic acid] | 32 to 64 | 0.5 to 1 | 8 to 16 | 32 to 64 | 2 to 4 | 32 to 64 | – | – | –
CCN1CCN(C(=O)NC(C(=O)N[C@H]2Cc3cccc(C(=O)O)c3OB2O)c2ccc(O)cc2)C(=O)C1=O (stereo partly drawn) [Example 27, (3R)-3-(2-(4-ethyl-2,3-dioxopiperazine-1-carboxamido)-2-(4-hydroxyphenyl)acetamido)-2-hydroxy-3,4-dihydro-2H-benzo[e][1,2]oxaborinine-8-carboxylic acid] | 32 to 64 | 0.5 to 1 | 8 to 16 | 32 to 64 | 2 to 4 | – | 32 to 64 | – | –
CCN1CCN(C(=O)NC(C(=O)N[C@H]2Cc3cccc(C(=O)O)c3OB2O)c2ccc(O)c(O)c2Cl)C(=O)C1=O (stereo partly drawn) [Example 37, (3R)-3-(2-(2-chloro-3,4-dihydroxyphenyl)-2-(4-ethyl-2,3-dioxopiperazine-1-carboxamido)acetamido)-2-hydroxy-3,4-dihydro-2H-benzo[e][1,2]oxaborinine-8-carboxylic acid] | – | 0.5 to 1 | – | 8 to 16 | 2 to 4 | 32 to 64 | – | 4 to 8 (≈ 6.96 to 13.9 µM) | 1 to 2 (≈ 1.74 to 3.48 µM)
CCN1CCN(C(=O)NC(C(=O)N[C@H]2Cc3cccc(C(=O)O)c3OB2O)c2cnc(N)s2)C(=O)C1=O (stereo partly drawn) [Example 51, (3R)-3-(2-(2-aminothiazol-5-yl)-2-(4-ethyl-2,3-dioxopiperazine-1-carboxamido)acetamido)-2-hydroxy-3,4-dihydro-2H-benzo[e][1,2]oxaborinine-8-carboxylic acid] | – | 0.5 to 1 | – | 32 to 64 | 8 to 16 | 8 to 16 | – | – | –
O=C(O)c1cccc2c1OB(O)[C@@H](NC(=O)C(NC(=O)N1CCN(CCF)C(=O)C1=O)c1ccc(O)c(O)c1Cl)C2 (stereo partly drawn) [Example 71, (3R)-3-(2-(2-chloro-3,4-dihydroxyphenyl)-2-(4-(2-fluoroethyl)-2,3-dioxopiperazine-1-carboxamido)acetamido)-2-hydroxy-3,4-dihydro-2H-benzo[e][1,2]oxaborinine-8-carboxylic acid] | – | 0.5 to 1 | – | 32 to 64 | 2 to 4 | 8 to 16 | – | – | –
CCCN1CCN(C(=O)NC(C(=O)N[C@H]2Cc3cccc(C(=O)O)c3OB2O)c2ccc(O)c(O)c2Cl)C(=O)C1=O (stereo partly drawn) [Example 82, (3R)-3-(2-(2-chloro-3,4-dihydroxyphenyl)-2-(2,3-dioxo-4-propylpiperazine-1-carboxamido)acetamido)-2-hydroxy-3,4-dihydro-2H-benzo[e][1,2]oxaborinine-8-carboxylic acid] | 32 to 64 | 2 to 4 | 2 to 4 | 32 to 64 | 2 to 4 | 32 to 64 | – | – | –
CCN1CCN(C(=O)NC(C(=O)N[C@H]2Cc3cccc(C(=O)O)c3OB2O)c2ccc(O)cc2F)C(=O)C1=O (stereo partly drawn) [Example 87, (3R)-3-(2-(4-ethyl-2,3-dioxopiperazine-1-carboxamido)-2-(2-fluoro-4-hydroxyphenyl)acetamido)-2-hydroxy-3,4-dihydro-2H-benzo[e][1,2]oxaborinine-8-carboxylic acid] | – | – | – | – | – | – | – | 1 to 2 (≈ 1.84 to 3.69 µM) | < 0.125
CCN1CCN(C(=O)NC(C(=O)N[C@H]2Cc3cccc(C(=O)O)c3OB2O)c2cc(O)c(O)cc2F)C(=O)C1=O (stereo partly drawn) [Example 90, (3R)-3-(2-(4-ethyl-2,3-dioxopiperazine-1-carboxamido)-2-(2-fluoro-4,5-dihydroxyphenyl)acetamido)-2-hydroxy-3,4-dihydro-2H-benzo[e][1,2]oxaborinine-8-carboxylic acid] | > 128 | 0.5 to 1 | 8 to 16 | 8 to 16 | 2 to 4 | 8 to 16 | – | – | –
CCN1CCN(C(=O)NC(C(=O)N[C@H]2Cc3cccc(C(=O)O)c3OB2O)c2cccc(N)n2)C(=O)C1=O (stereo partly drawn) [Example 104, (3R)-3-(2-(6-aminopyridin-2-yl)-2-(4-ethyl-2,3-dioxopiperazine-1-carboxamido)acetamido)-2-hydroxy-3,4-dihydro-2H-benzo[e][1,2]oxaborinine-8-carboxylic acid] | 32 to 64 | < 0.25 | 2 to 4 | 32 to 64 | 0.5 to 1 | 8 to 16 | – | – | –
CCN1CCN(C(=O)NC(C(=O)N[C@H]2Cc3cccc(C(=O)[O-])c3OB2O)c2ccc[n+](CC(N)=O)c2)C(=O)C1=O (stereo partly drawn) [Example 107, (3R)-3-(2-(1-(2-amino-2-oxoethyl)pyridin-1-ium-3-yl)-2-(4-ethyl-2,3-dioxopiperazine-1-carboxamido)acetamido)-2-hydroxy-3,4-dihydro-2H-benzo[e][1,2]oxaborinine-8-carboxylate] | 32 to 64 | 8 to 16 | 32 to 64 | 32 to 64 | 8 to 16 | 32 to 64 | – | – | –
CCN1CCN(C(=O)N[C@@H](C(=O)N[C@H]2Cc3ccc(F)c(C(=O)O)c3OB2O)[C@@H](C)O)C(=O)C1=O [Example 110, (R)-3-((2R,3R)-2-(4-ethyl-2,3-dioxopiperazine-1-carboxamido)-3-hydroxybutanamido)-7-fluoro-2-hydroxy-3,4-dihydro-2H-benzo[e][1,2]oxaborinine-8-carboxylic acid] | 8 to 16 | 2 to 4 | 8 to 16 | 8 to 16 | 8 to 16 | 8 to 16 | – | – | –
CCN1CCN(C(=O)NC(C(=O)N[C@H]2Cc3cccc(C(=O)O)c3OB2O)c2cccs2)C(=O)C1=O (stereo partly drawn) [Example 115, (3R)-3-(2-(4-ethyl-2,3-dioxopiperazine-1-carboxamido)-2-(thiophen-2-yl)acetamido)-2-hydroxy-3,4-dihydro-2H-benzo[e][1,2]oxaborinine-8-carboxylic acid] | 32 to 64 | < 0.25 | 8 to 16 | 32 to 64 | 2 to 4 | 32 to 64 | – | – | –
CCN1CCN(C(=O)NC(C(=O)N[C@H]2Cc3cccc(C(=O)O)c3OB2O)c2cccc(O)n2)C(=O)C1=O (stereo partly drawn) [Example 117, (3R)-3-(2-(4-ethyl-2,3-dioxopiperazine-1-carboxamido)-2-(6-hydroxypyridin-2-yl)acetamido)-2-hydroxy-3,4-dihydro-2H-benzo[e][1,2]oxaborinine-8-carboxylic acid] | > 128 | 0.5 to 1 | 8 to 16 | 32 to 64 | 2 to 4 | 32 to 64 | – | – | –
CCN1CCN(C(=O)NC(C(=O)N[C@H]2Cc3cccc(C(=O)O)c3OB2O)c2cnc(O)cn2)C(=O)C1=O (stereo partly drawn) [Example 121, (3R)-3-(2-(4-ethyl-2,3-dioxopiperazine-1-carboxamido)-2-(5-hydroxypyrazin-2-yl)acetamido)-2-hydroxy-3,4-dihydro-2H-benzo[e][1,2]oxaborinine-8-carboxylic acid] | 32 to 64 | 0.5 to 1 | 8 to 16 | 8 to 16 | 2 to 4 | 32 to 64 | – | – | –
